Results: PubChem BioAssay AID2060489 (Molecular Pharmacology Branch, DTP, NCI, 2025)

System: 922993-354-T-J3-PDC complex spheroids, viability
Test: Anticancer human tumor 922993-354-T-J3-PDC patient-derived endometrial carcinoma cell line growth inhibition [GQUAD]
Settings: for IC50: curve of first compound; for viability, T/C: stronger effect = lower value
In short: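 Tumor cells were grown as complex spheroids with HUVEC endothelial cells and mesenchymal stem cells as stroma. G-quadruplex stabilizers were combined with targeted agents over half-log dilutions from near the clinical Cmax, or from 10 microM.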

[1] = second compound 0.0316 µM, first compound 0.0316 µM
[2] = second compound 0.0316 µM, first compound 0.1 µM
[3] = second compound 0.0316 µM, first compound 0.316 µM
[4] = second compound 0.0316 µM, first compound 1 µM
[5] = second compound 0.0316 µM, first compound 3.16 µM
[6] = second compound 0.0316 µM, first compound 10 µM
[7] = second compound 0.1 µM, first compound 0.0316 µM
[8] = second compound 0.1 µM, first compound 0.1 µM
[9] = second compound 0.1 µM, first compound 0.316 µM
[10] = second compound 0.1 µM, first compound 1 µM
[11] = second compound 0.1 µM, first compound 3.16 µM
[12] = second compound 0.1 µM, first compound 10 µM
[13] = second compound 0.316 µM, first compound 0.0316 µM
[14] = second compound 0.316 µM, first compound 0.1 µM
[15] = second compound 0.316 µM, first compound 0.316 µM
[16] = second compound 0.316 µM, first compound 1 µM
[17] = second compound 0.316 µM, first compound 3.16 µM
[18] = second compound 0.316 µM, first compound 10 µM
[19] = second compound 1 µM, first compound 0.0316 µM
[20] = second compound 1 µM, first compound 0.1 µM
[21] = second compound 1 µM, first compound 0.316 µM
[22] = second compound 1 µM, first compound 1 µM
[23] = second compound 1 µM, first compound 3.16 µM
[24] = second compound 1 µM, first compound 10 µM
[25] = second compound 3.16 µM, first compound 0.0316 µM
[26] = second compound 3.16 µM, first compound 0.1 µM
[27] = second compound 3.16 µM, first compound 0.316 µM
[28] = second compound 3.16 µM, first compound 1 µM
[29] = second compound 3.16 µM, first compound 3.16 µM
[30] = second compound 3.16 µM, first compound 10 µM
[31] = second compound 10 µM, first compound 0.0316 µM
[32] = second compound 10 µM, first compound 0.1 µM
[33] = second compound 10 µM, first compound 0.316 µM
[34] = second compound 10 µM, first compound 1 µM
[35] = second compound 10 µM, first compound 3.16 µM
[36] = second compound 10 µM, first compound 10 µM
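Note: spheroids exposed to compounds for seven days.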
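Throughout, for viability, T/C: 100% = DMSO vehicle control viability.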

## C=CCn1c(=O)c2cnc(Nc3ccc(N4CCN(C)CC4)cc3)nc2n1-c1cccc(C(C)(C)O)n1 + Cc1[nH]c2ccc(F)cc2c1-c1nc2c3cccnc3c3ncccc3c2[nH]1
Second compound 0.0316 µM
  IC50: 4.83 µM
Second compound 0.1 µM
  IC50: 4.5 µM
Second compound 0.316 µM
  IC50: 3.37 µM
Second compound 1 µM
  IC50: 5.51 µM
Second compound 3.16 µM
  IC50: 5.24 µM
Second compound 10 µM
  IC50: 4.37 µM
[1]
  viability, T/C: 119%
[2]
  viability, T/C: 107%
[3]
  viability, T/C: 119%
[4]
  viability, T/C: 101%
[5]
  viability, T/C: 70.6%
[6]
  viability, T/C: 16.6%
[7]
  viability, T/C: 127%
[8]
  viability, T/C: 81.2%
[9]
  viability, T/C: 108%
[10]
  viability, T/C: 91.7%
[11]
  viability, T/C: 64.6%
[12]
  viability, T/C: 16.4%
[13]
  viability, T/C: 97.5%
[14]
  viability, T/C: 122%
[15]
  viability, T/C: 128%
[16]
  viability, T/C: 116%
[17]
  viability, T/C: 52.1%
[18]
  viability, T/C: 14.7%
[19]
  viability, T/C: 91.9%
[20]
  viability, T/C: 102%
[21]
  viability, T/C: 101%
[22]
  viability, T/C: 91%
[23]
  viability, T/C: 80.4%
[24]
  viability, T/C: 17.9%
[25]
  viability, T/C: 114%
[26]
  viability, T/C: 81.5%
[27]
  viability, T/C: 124%
[28]
  viability, T/C: 107%
[29]
  viability, T/C: 75.4%
[30]
  viability, T/C: 17.4%
[31]
  viability, T/C: 105%
[32]
  viability, T/C: 97.9%
[33]
  viability, T/C: 104%
[34]
  viability, T/C: 98.2%
[35]
  viability, T/C: 63.6%
[36]
  viability, T/C: 15%

## COc1ncnc(C2CC2)c1-c1ncc2cnn(Cc3ccc(-c4nc(C(F)(F)F)cn4C(C)C)cc3)c2n1 + Cc1[nH]c2ccc(F)cc2c1-c1nc2c3cccnc3c3ncccc3c2[nH]1
Second compound 0.0316 µM
  IC50: > 10 µM
Second compound 0.1 µM
  IC50: > 10 µM
Second compound 0.316 µM
  IC50: > 10 µM
Second compound 1 µM
  IC50: > 10 µM
Second compound 3.16 µM
  IC50: > 10 µM
Second compound 10 µM
  IC50: > 10 µM
[1]
  viability, T/C: 94.6%
[2]
  viability, T/C: 87.3%
[3]
  viability, T/C: 80.7%
[4]
  viability, T/C: 82.3%
[5]
  viability, T/C: 90.7%
[6]
  viability, T/C: 88.8%
[7]
  viability, T/C: 123%
[8]
  viability, T/C: 99.2%
[9]
  viability, T/C: 90.1%
[10]
  viability, T/C: 70.1%
[11]
  viability, T/C: 96.2%
[12]
  viability, T/C: 93.2%
[13]
  viability, T/C: 97.2%
[14]
  viability, T/C: 111%
[15]
  viability, T/C: 94.7%
[16]
  viability, T/C: 92.2%
[17]
  viability, T/C: 91.4%
[18]
  viability, T/C: 79.8%
[19]
  viability, T/C: 98.2%
[20]
  viability, T/C: 86.6%
[21]
  viability, T/C: 107%
[22]
  viability, T/C: 88.2%
[23]
  viability, T/C: 110%
[24]
  viability, T/C: 95.1%
[25]
  viability, T/C: 80.2%
[26]
  viability, T/C: 116%
[27]
  viability, T/C: 105%
[28]
  viability, T/C: 124%
[29]
  viability, T/C: 123%
[30]
  viability, T/C: 90.6%
[31]
  viability, T/C: 104%
[32]
  viability, T/C: 103%
[33]
  viability, T/C: 116%
[34]
  viability, T/C: 92.3%
[35]
  viability, T/C: 95.7%
[36]
  viability, T/C: 97.6%

## CC1COCCN1c1cc(-c2ccnn2C)c2ccnc(-c3ccn[nH]3)c2n1 (stereo not given) + Cc1cnc(CNC(=O)c2c(=O)c3ccc(N4CCCN(C)CC4)nc3n3c2sc2ccccc23)cn1
Second compound 0.0316 µM
  IC50: < 0.0316 µM
Second compound 0.1 µM
  IC50: < 0.0316 µM
Second compound 0.316 µM
  IC50: < 0.0316 µM
Second compound 1 µM
  IC50: < 0.0316 µM
Second compound 3.16 µM
  IC50: < 0.0316 µM
Second compound 10 µM
  IC50: < 0.0316 µM
[1]
  viability, T/C: 49.1%
[2]
  viability, T/C: 50.3%
[3]
  viability, T/C: 42.2%
[4]
  viability, T/C: 24.7%
[5]
  viability, T/C: 24.3%
[6]
  viability, T/C: 21.9%
[7]
  viability, T/C: 45.4%
[8]
  viability, T/C: 42.9%
[9]
  viability, T/C: 25.3%
[10]
  viability, T/C: 25.7%
[11]
  viability, T/C: 28.9%
[12]
  viability, T/C: 20.7%
[13]
  viability, T/C: 45.5%
[14]
  viability, T/C: 44.4%
[15]
  viability, T/C: 37.2%
[16]
  viability, T/C: 33.5%
[17]
  viability, T/C: 22.9%
[18]
  viability, T/C: 20.9%
[19]
  viability, T/C: 43.7%
[20]
  viability, T/C: 51.7%
[21]
  viability, T/C: 46%
[22]
  viability, T/C: 43.8%
[23]
  viability, T/C: 22.9%
[24]
  viability, T/C: 6.94%
[25]
  viability, T/C: 50.1%
[26]
  viability, T/C: 43.8%
[27]
  viability, T/C: 46.6%
[28]
  viability, T/C: 36.6%
[29]
  viability, T/C: 8.14%
[30]
  viability, T/C: 0.53%
[31]
  viability, T/C: 51.9%
[32]
  viability, T/C: 42%
[33]
  viability, T/C: 46.3%
[34]
  viability, T/C: 22.2%
[35]
  viability, T/C: 0.68%
[36]
  viability, T/C: 0.18%

## CC1COCCN1c1cc(C2(S(C)(=N)=O)CC2)nc(-c2ccnc3[nH]ccc23)n1 (stereo not given) + Cc1cnc(CNC(=O)c2c(=O)c3ccc(N4CCCN(C)CC4)nc3n3c2sc2ccccc23)cn1
Second compound 0.0316 µM
  IC50: 7.86 µM
Second compound 0.1 µM
  IC50: 5.47 µM
Second compound 0.316 µM
  IC50: 0.172 µM
Second compound 1 µM
  IC50: > 10 µM
Second compound 3.16 µM
  IC50: > 10 µM
Second compound 10 µM
  IC50: < 0.0316 µM
[1]
  viability, T/C: 87.9%
[2]
  viability, T/C: 79.4%
[3]
  viability, T/C: 82.8%
[4]
  viability, T/C: 67.9%
[5]
  viability, T/C: 91.5%
[6]
  viability, T/C: 41.6%
[7]
  viability, T/C: 70.4%
[8]
  viability, T/C: 63.5%
[9]
  viability, T/C: 55.2%
[10]
  viability, T/C: 61%
[11]
  viability, T/C: 66%
[12]
  viability, T/C: 35.5%
[13]
  viability, T/C: 59.9%
[14]
  viability, T/C: 50.7%
[15]
  viability, T/C: 50.9%
[16]
  viability, T/C: 38.8%
[17]
  viability, T/C: 50.5%
[18]
  viability, T/C: 39.2%
[19]
  viability, T/C: 46.3%
[20]
  viability, T/C: 60.1%
[21]
  viability, T/C: 51.7%
[22]
  viability, T/C: 45.2%
[23]
  viability, T/C: 48.5%
[24]
  viability, T/C: 53.3%
[25]
  viability, T/C: 49.1%
[26]
  viability, T/C: 52.8%
[27]
  viability, T/C: 54.4%
[28]
  viability, T/C: 48%
[29]
  viability, T/C: 54.4%
[30]
  viability, T/C: 52.5%
[31]
  viability, T/C: 51.8%
[32]
  viability, T/C: 42.9%
[33]
  viability, T/C: 54%
[34]
  viability, T/C: 50.6%
[35]
  viability, T/C: 47.3%
[36]
  viability, T/C: 53.6%

## COc1ccc([C@@H](O)c2cc(-c3ncnc4cc(N5CCOCC5)ccc34)c(F)cc2Cl)nn1 + Cc1cnc(CNC(=O)c2c(=O)c3ccc(N4CCCN(C)CC4)nc3n3c2sc2ccccc23)cn1
Second compound 0.0316 µM
  IC50: 2.86 µM
Second compound 0.1 µM
  IC50: 1.02 µM
Second compound 0.316 µM
  IC50: 0.456 µM
Second compound 1 µM
  IC50: 3.99 µM
Second compound 3.16 µM
  IC50: 1.83 µM
Second compound 10 µM
  IC50: < 0.0316 µM
[1]
  viability, T/C: 84.2%
[2]
  viability, T/C: 60.5%
[3]
  viability, T/C: 88.1%
[4]
  viability, T/C: 66.6%
[5]
  viability, T/C: 49.9%
[6]
  viability, T/C: 42.9%
[7]
  viability, T/C: 79.9%
[8]
  viability, T/C: 61.7%
[9]
  viability, T/C: 67.7%
[10]
  viability, T/C: 44.3%
[11]
  viability, T/C: 44.1%
[12]
  viability, T/C: 35.6%
[13]
  viability, T/C: 66.7%
[14]
  viability, T/C: 54.3%
[15]
  viability, T/C: 48.1%
[16]
  viability, T/C: 52.6%
[17]
  viability, T/C: 45.5%
[18]
  viability, T/C: 38.1%
[19]
  viability, T/C: 57.1%
[20]
  viability, T/C: 49.5%
[21]
  viability, T/C: 56.7%
[22]
  viability, T/C: 57.7%
[23]
  viability, T/C: 58.6%
[24]
  viability, T/C: 27.1%
[25]
  viability, T/C: 51.8%
[26]
  viability, T/C: 51%
[27]
  viability, T/C: 55.7%
[28]
  viability, T/C: 52.3%
[29]
  viability, T/C: 47.8%
[30]
  viability, T/C: 14.6%
[31]
  viability, T/C: 45%
[32]
  viability, T/C: 50.7%
[33]
  viability, T/C: 46.8%
[34]
  viability, T/C: 38.6%
[35]
  viability, T/C: 30.3%
[36]
  viability, T/C: 4.3%
